Laboratory results as given in patent US20240325544A1, “CATIONIC LIPID FOR COVALENT MODIFICATION OF PEPTIDES” (PharmalN Corporation, priority 2023, published 2024).
Like-named read-outs stand apart in the source and are kept apart here. Marks after values point to notes of the source that are not given here. Bridge positions count the residues as written; N and C are the ends. Square brackets hold non-standard residues; d marks the D form. Peptide text beside a SMILES is read from it. * marks the point of attachment. C18 diacid = O=C(O)CCCCCCCCCCCCCCCCC(=O)*; Palmitoyl = CCCCCCCCCCCCCCCC(=O)*; Dab = NCC[C@H](N)C(=O)O; Dap = NC[C@H](N)C(=O)O; AEEA = NCCOCCOCC(=O)O; GABA = NCCCC(=O)O

Assays:
cGMP = assay: Plasma cGMP after SC bolus of natriuretic peptides in CD-1 mice (pharmacodynamics, Table 3); type: in vivo; conditions: SC bolus 1.0 mg/kg (≤0.45 μmol/kg), baseline 10 +/−8 pmol/ml, n = 3-5
Experimental: (§1) The test articles were formulated or dissolved in sterile water for injection on the same day of administration. […] Blood samples were collected via retro-orbital bleed at 2- and 6-hours post-injection, with two bleedings per animal at two different timepoints. The samples were collected in K2EDTA tubes, processed by centrifugation (2000×g; 15 m 4 eC within 30 minutes after collection), and the resulting plasma samples were stored at −80° C. Biochemical analysis: The plasma concentration of the respective natriuretic peptide was analyzed using commercially available ELISA kits from Phoenix Pharmaceuticals (Burlingame, CA): ANP ELISA (cat #EKE-005-06), BNP ELISA (cat #EKE-011-03), and CNP ELISA (cat #EKE-012-03). […] Plasma cGMP was analyzed using a commercially available kit from Abcam (ab133052, Waltham, MA).

[1] = Plasma concentration of respective natriuretic peptide by ELISA after SC bolus in CD-1 mice (pharmacokinetics, Table 3); conditions: male, CD-1, mouse, in vivo
Experimental: as §1

level at 2 h ([1]; sc, 1 mg/kg) [ng/mL] | level at 6 h ([1]; sc, 1 mg/kg) [ng/mL] | Structure (SMILES) | Plasma concentration of cGMP, 2 hr (cGMP) | Plasma concentration of cGMP, 6 hr (cGMP) | level at 2 h ([1]; mice, SC bolus 1.0 mg/kg (≤0.45 μmol/kg), 2 hr, ELISA, n = 3-5, read-out: Plasma concentration of respective Natriuretic Peptide, ANP, BNP, or CNP, 2 hr) [ng/mL] | level at 6 h ([1]; mice, SC bolus 1.0 mg/kg (≤0.45 μmol/kg), 6 hr, ELISA, n = 3-5, read-out: Plasma concentration of respective Natriuretic Peptide, ANP, BNP, or CNP, 6 hr) [ng/mL]
31.7 | 25.9 | CCCCCCCCCCCCCCCC(=O)N[C@@H](CCC(=O)O)C(=O)NCCOCCOCC(=O)NCCOCCOCC(=O)N[C@@H](CCN)C(=O)N[C@@H](CCN)C(=O)NCC(=O)N[C@@H](CC(C)C)C(=O)N[C@@H](CO)C(=O)N[C@@H](CCCCN)C(=O)NCC(=O)N[C@H]1CSSC[C@@H](C(=O)O)NC(=O)CNC(=O)[C@H](CC(C)C)NC(=O)CNC(=O)[C@H](CO)NC(=O)[C@H](CCC(N)=O)NC(=O)[C@H](CO)NC(=O)CNC(=O)[C@H]([C@@H](C)CC)NC(=O)[C@H](CCCNC(=N)N)NC(=O)[C@H](CC(=O)O)NC(=O)[C@H](CC(C)C)NC(=O)[C@H](CCCCN)NC(=O)[C@H](CC(C)C)NC(=O)CNC(=O)[C@H](Cc2ccccc2)NC1=O [SEQ ID NO: 38] (Palmitoyl-E[AEEA][AEEA][Dab][Dab]GLSKGCFGLKLDRIGSQSGLGC-OH; disulfide 11-27; C-terminus assumed) | 74.69* pmol/mL | 38.95*** pmol/mL |  | 
 |  | CC[C@H](C)[C@@H]1NC(=O)[C@H](CCCNC(=N)N)NC(=O)[C@H](CC(=O)O)NC(=O)[C@H](CCSC)NC(=O)[C@H](CCCCN)NC(=O)[C@H](CCCNC(=N)N)NC(=O)CNC(=O)[C@H](Cc2ccccc2)NC(=O)[C@@H](NC(=O)CNC(=O)[C@H](CO)NC(=O)CNC(=O)[C@H](CCC(N)=O)NC(=O)[C@@H](NC(=O)[C@H](CCSC)NC(=O)[C@H](CCCCN)NC(=O)[C@@H]2CCCN2C(=O)[C@@H](N)CO)C(C)C)CSSC[C@@H](C(=O)N[C@@H](CCCCN)C(=O)N[C@H](C(=O)N[C@@H](CC(C)C)C(=O)N[C@@H](CCCNC(=N)N)C(=O)N[C@@H](CCCNC(=N)N)C(=O)N[C@@H](Cc2c[nH]cn2)C(=O)O)C(C)C)NC(=O)CNC(=O)[C@H](CC(C)C)NC(=O)CNC(=O)[C@H](CO)NC(=O)[C@H](CO)NC(=O)[C@H](CO)NC(=O)[C@H](CO)NC1=O [SEQ ID NO: 48, reference compound] | 10.57 pmol/mL | 8.48 pmol/mL | 23.3 | 30.6
75.5 | 41 | CC[C@H](C)[C@@H]1NC(=O)[C@H](CCCNC(=N)N)NC(=O)[C@H](CC(=O)O)NC(=O)[C@H](CC(C)C)NC(=O)[C@H](CCCCN)NC(=O)[C@H](CC(C)C)NC(=O)CNC(=O)[C@H](Cc2ccccc2)NC(=O)[C@@H](NC(=O)CNC(=O)[C@H](CCCCN)NC(=O)[C@H](CO)NC(=O)[C@H](CC(C)C)NC(=O)CNC(=O)[C@H](CCN)NC(=O)[C@H](CCN)NC(=O)COCCOCCNC(=O)COCCOCCNC(=O)CCCCCCCCCCCCCCCCC(=O)O)CSSC[C@@H](C(=O)O)NC(=O)CNC(=O)[C@H](CC(C)C)NC(=O)CNC(=O)[C@H](CO)NC(=O)[C@H](CCC(N)=O)NC(=O)[C@H](CO)NC(=O)CNC1=O [SEQ ID NO: 34] ({C18 diacid-AEEA-AEEA}-[Dab][Dab]GLSKGCFGLKLDRIGSQSGLGC-OH; disulfide 8-24; C-terminus assumed) | 15.78* pmol/mL | 33.6 pmol/mL |  | 
26.7 | 30.1 | CCCCCCCCCCCCCCCC(=O)NCCOCCOCC(=O)NCCOCCOCC(=O)NCCOCCOCC(=O)N[C@@H](CCN)C(=O)NCC(=O)N[C@@H](CC(C)C)C(=O)N[C@@H](CO)C(=O)N[C@@H](CCCCN)C(=O)NCC(=O)N[C@H]1CSSC[C@@H](C(=O)O)NC(=O)CNC(=O)[C@H](CC(C)C)NC(=O)CNC(=O)[C@H](CO)NC(=O)[C@H](CCC(N)=O)NC(=O)[C@H](CO)NC(=O)CNC(=O)[C@H]([C@@H](C)CC)NC(=O)[C@H](CCCNC(=N)N)NC(=O)[C@H](CC(=O)O)NC(=O)[C@H](CC(C)C)NC(=O)[C@H](CCCCN)NC(=O)[C@H](CC(C)C)NC(=O)CNC(=O)[C@H](Cc2ccccc2)NC1=O [SEQ ID NO: 41] ({Palmitoyl-AEEA-AEEA-AEEA}-[Dab]GLSKGCFGLKLDRIGSQSGLGC-OH; disulfide 7-23; C-terminus assumed) | 124.77*** pmol/mL | 67.78**** pmol/mL |  | 
12.9 | 4.13 | CCCCCCCCCCCCCCCC(=O)NCCOCCOCC(=O)NCCOCCOCC(=O)N[C@@H](CN)C(=O)N[C@@H](CCN)C(=O)NCC(=O)N[C@@H](CC(C)C)C(=O)N[C@@H](CO)C(=O)N[C@@H](CCCCN)C(=O)NCC(=O)N[C@H]1CSSC[C@@H](C(=O)O)NC(=O)CNC(=O)[C@H](CC(C)C)NC(=O)CNC(=O)[C@H](CO)NC(=O)[C@H](CCC(N)=O)NC(=O)[C@H](CO)NC(=O)CNC(=O)[C@H]([C@@H](C)CC)NC(=O)[C@H](CCCNC(=N)N)NC(=O)[C@H](CC(=O)O)NC(=O)[C@H](CC(C)C)NC(=O)[C@H](CCCCN)NC(=O)[C@H](CC(C)C)NC(=O)CNC(=O)[C@H](Cc2ccccc2)NC1=O [SEQ ID NO: 35] ({Palmitoyl-AEEA-AEEA}-[Dap][Dab]GLSKGCFGLKLDRIGSQSGLGC-OH; disulfide 8-24; C-terminus assumed) | 65.28**** pmol/mL | 35.10** pmol/mL |  | 
50.7 | 23.7 | CC[C@H](C)[C@@H]1NC(=O)[C@H](CCCNC(=N)N)NC(=O)[C@H](CC(=O)O)NC(=O)[C@H](CC(C)C)NC(=O)[C@H](CCCCN)NC(=O)[C@H](CC(C)C)NC(=O)CNC(=O)[C@H](Cc2ccccc2)NC(=O)[C@@H](NC(=O)CNC(=O)[C@H](CCCCN)NC(=O)[C@H](CO)NC(=O)[C@H](CC(C)C)NC(=O)CNC(=O)[C@H](CN)NC(=O)[C@H](CN)NC(=O)COCCOCCNC(=O)COCCOCCNC(=O)COCCOCCNC(=O)CCCCCCCCCCCCCCCCC(=O)O)CSSC[C@@H](C(=O)O)NC(=O)CNC(=O)[C@H](CC(C)C)NC(=O)CNC(=O)[C@H](CO)NC(=O)[C@H](CCC(N)=O)NC(=O)[C@H](CO)NC(=O)CNC1=O [SEQ ID NO: 39] ({C18 diacid-AEEA-AEEA-AEEA}-[Dap][Dap]GLSKGCFGLKLDRIGSQSGLGC-OH; disulfide 8-24; C-terminus assumed) | 13.29 pmol/mL | 43.60 pmol/mL |  | 
7.57 | 2.57 | CCCCCCCCCCCCCCCC(=O)NCCCC(=O)NCCCC(=O)NCCCC(=O)N[C@@H](CCN)C(=O)N[C@@H](CCN)C(=O)NCC(=O)N[C@@H](CC(C)C)C(=O)N[C@@H](CO)C(=O)N[C@@H](CCCCN)C(=O)NCC(=O)N[C@H]1CSSC[C@@H](C(=O)O)NC(=O)CNC(=O)[C@H](CC(C)C)NC(=O)CNC(=O)[C@H](CO)NC(=O)[C@H](CCC(N)=O)NC(=O)[C@H](CO)NC(=O)CNC(=O)[C@H]([C@@H](C)CC)NC(=O)[C@H](CCCNC(=N)N)NC(=O)[C@H](CC(=O)O)NC(=O)[C@H](CC(C)C)NC(=O)[C@H](CCCCN)NC(=O)[C@H](CC(C)C)NC(=O)CNC(=O)[C@H](Cc2ccccc2)NC1=O [SEQ ID NO: 36] ({Palmitoyl-GABA-GABA-GABA}-[Dab][Dab]GLSKGCFGLKLDRIGSQSGLGC-OH; disulfide 8-24; C-terminus assumed) | 54.61*** pmol/mL | 41.75** pmol/mL |  | 
11.9 | 5.77 | CCCCCCCCCCCCCCCC(=O)NCCCC(=O)NCCCC(=O)N[C@@H](CCN)C(=O)N[C@@H](CCN)C(=O)NCC(=O)N[C@@H](CC(C)C)C(=O)N[C@@H](CO)C(=O)N[C@@H](CCCCN)C(=O)NCC(=O)N[C@H]1CSSC[C@@H](C(=O)O)NC(=O)CNC(=O)[C@H](CC(C)C)NC(=O)CNC(=O)[C@H](CO)NC(=O)[C@H](CCC(N)=O)NC(=O)[C@H](CO)NC(=O)CNC(=O)[C@H]([C@@H](C)CC)NC(=O)[C@H](CCCNC(=N)N)NC(=O)[C@H](CC(=O)O)NC(=O)[C@H](CC(C)C)NC(=O)[C@H](CCCCN)NC(=O)[C@H](CC(C)C)NC(=O)CNC(=O)[C@H](Cc2ccccc2)NC1=O [SEQ ID NO: 37] ({Palmitoyl-GABA-GABA}-[Dab][Dab]GLSKGCFGLKLDRIGSQSGLGC-OH; disulfide 8-24; C-terminus assumed) | 39.77* pmol/mL | 22.71** pmol/mL |  | 
75.9 | 68.2 | CC[C@H](C)[C@@H]1NC(=O)[C@H](CCCNC(=N)N)NC(=O)[C@H](CC(=O)O)NC(=O)[C@H](CC(C)C)NC(=O)[C@H](CCCCN)NC(=O)[C@H](CC(C)C)NC(=O)CNC(=O)[C@H](Cc2ccccc2)NC(=O)[C@@H](NC(=O)CNC(=O)[C@H](CCCCN)NC(=O)[C@H](CO)NC(=O)[C@H](CC(C)C)NC(=O)CNC(=O)[C@H](CCN)NC(=O)[C@H](CCN)NC(=O)COCCOCCNC(=O)COCCOCCNC(=O)COCCOCCNC(=O)CCCCCCCCCCCCCCCCC(=O)O)CSSC[C@@H](C(=O)O)NC(=O)CNC(=O)[C@H](CC(C)C)NC(=O)CNC(=O)[C@H](CO)NC(=O)[C@H](CCC(N)=O)NC(=O)[C@H](CO)NC(=O)CNC1=O [SEQ ID NO: 33] ({C18 diacid-AEEA-AEEA-AEEA}-[Dab][Dab]GLSKGCFGLKLDRIGSQSGLGC-OH; disulfide 8-24; C-terminus assumed) | 25.91** pmol/mL | 31.61* pmol/mL |  | 
